Results taken from PubChem BioAssay (NCI).
Values joined by “and” are separate entries in the source; they are usually repeats but may differ in a detail not shown here. Identical values can stand only once.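 In this assay, cells in 96-well plates receive the compound at five concentrations for 48 hours. Endpoints are linearly interpolated between the surrounding concentrations. GI50 = concentration required for 50% inhibition of growth. At the TGI there is no net growth.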

Key:
Experiment in all cases: NCI anticancer screen, dose series, 48 h
SNB-19 CNS = tested on: SNB-19 CNS
KM12 colon = tested on: KM12 colon
HL-60(TB) leukemia = tested on: HL-60(TB) leukemia
T-47D breast = tested on: T-47D breast
ACHN renal = tested on: ACHN renal
K-562 leukemia = tested on: K-562 leukemia
HCT-15 colon = tested on: HCT-15 colon
SF-295 CNS = tested on: SF-295 CNS
SNB-75 CNS = tested on: SNB-75 CNS
CCRF-CEM leukemia = tested on: CCRF-CEM leukemia

SMILES	GI50 (SNB-19 CNS) [µM]	TGI (SNB-19 CNS)	GI50 (KM12 colon)	TGI (KM12 colon) [µM]	GI50 (HL-60(TB) leukemia) [µM]	TGI (HL-60(TB) leukemia) [µM]	GI50 (T-47D breast)	TGI (T-47D breast) [µM]	GI50 (ACHN renal) [µM]	TGI (ACHN renal)	GI50 (K-562 leukemia)	TGI (K-562 leukemia)	GI50 (HCT-15 colon)	TGI (HCT-15 colon) [µM]	GI50 (SF-295 CNS) [µM]	TGI (SF-295 CNS)	GI50 (SNB-75 CNS) [µM]	TGI (SNB-75 CNS)	GI50 (CCRF-CEM leukemia) [µM]	TGI (CCRF-CEM leukemia) [µM]
COc1ccc2c(O)c(/C=C3\N=Nc4ncccc43)oc2c1C[C@H]1CCNC[C@H]1F	0.419	11.6 µM	0.39 µM	4.79	0.246	0.625	3.46 µM	21.1	0.27	8.18 µM	0.436 µM	27.4 µM	0.507 µM	12.2	0.343	11.9 µM	0.185	1.54 µM	0.227	0.876
CCOC(=O)C12CCSC1C1(C#N)C(C#N)=CC2(N=P(c2ccccc2)(c2ccccc2)c2ccccc2)n2c(=O)n(-c3ccccc3)c(=O)n21 (stereo not given)		> 100 µM		> 100		71.5				> 100 µM		> 100 µM		> 100		> 100 µM		> 100 µM		> 100
CSc1c(S(C)=O)[nH]c2cc(Br)cc(Br)c12 (stereo not given)				62.6		52.3				88.2 µM		72.3 µM		70.8		45.2 µM		50.9 µM		58.5
COc1ccc(C(=O)Nc2ccc(S(=O)(=O)NCC(=O)O)cc2)cc1		> 100 µM		> 100		> 100				> 100 µM		> 100 µM		> 100		> 100 µM		> 100 µM		> 100
O=C1OCC2=C1C(c1cccc(C(F)(F)F)c1)c1cc3c(cc1N2CCO)OCO3 (stereo not given)	1.62	> 50 µM	1.88 µM	> 50					3.09	> 50 µM	0.273 µM	> 50 µM	0.511 µM	> 50	0.801	> 50 µM			0.955	> 50
CC1(C(=O)NCCN(CCNC(=O)C2(C)CC3(C)CC(C)(C2)C(=O)NC3=O)CCNC(=O)C2(C)CC3(C)CC(C)(C2)C(=O)NC3=O)CC2(C)CC(C)(C1)C(=O)NC2=O (stereo not given)		> 100 µM		> 100		> 100				> 100 µM		> 100 µM		> 100		> 100 µM		> 100 µM		> 100
COc1cc([N+](=O)[O-])c(S(=O)(=O)O)cc1N		> 100 µM		> 100		> 100		> 100		> 100 µM		> 100 µM		> 100				> 100 µM		> 100
Cc1ccc(/C=N/NS(=O)(=O)c2ccccc2)cc1				> 100		> 100				> 100 µM		> 100 µM		> 100		> 100 µM		> 100 µM		> 100
CCN1CCC2(CC1)NC(=O)c1c(c3ccc(Cl)c(Cl)c3n1C)C2C#N (stereo not given)	7.1	24.5 µM			2.01	6.02	3.09 µM	13.7	2.92	12.8 µM	2.19 µM	6.21 µM	1.81 µM	4.75	1.79	4.35 µM	1.75	4.64 µM	3	13.1
C/C(=C1/N=C(c2ccccc2)OC1=O)c1ccc(C)cc1		> 100 µM		> 100		> 100		> 100		> 100 µM		> 100 µM		> 100		> 100 µM				> 100
COc1cc(-c2nc(-c3nnc(-c4ccc(F)c(Cl)c4)o3)c3ccccn23)cc(OC)c1OC	1.93	5.36 µM									4.34 µM	> 100 µM	4.55 µM	> 100	3.09	> 100 µM	1.3	3.46 µM	> 100	> 100
COC1=C(C)C(=O)C2=C(C1=O)C(CO)N1C(C#N)C3CC4C(C1C2N1CCOC41)N3C (stereo not given)		8.15 µM and 5.65 µM and 13.6 µM	0.0043 µM and 0.0305 µM		0.000183		0.00033 µM and < 0.0144 µM		0.00277	3.54 µM and 10.6 µM	0.00627 µM and < 0.01 µM	0.547 µM and 0.0682 µM and 0.123 µM	0.00146 µM and 0.0129 µM		0.142	0.845 µM and 0.678 µM and 1.11 µM	0.0669	0.141 µM and 0.226 µM and 0.338 µM		
O=C(O)c1c([N+](=O)[O-])cc(C(F)(F)F)cc1[N+](=O)[O-]		> 100 µM		> 100		> 100				> 100 µM		> 100 µM		> 100		> 100 µM				> 100
Clc1ccccc1C1N2CCCCC2[C@@H]2c3[nH]c4ccccc4c3CCN12 (stereo not given in full)		82.7 µM				> 100				45.8 µM		44.2 µM		29.9		58.9 µM		66.7 µM		52.9
C/C=C/C(=O)[C@@H](O)C(C)C		> 100 µM		> 100						> 100 µM		> 100 µM		> 100		> 100 µM		> 100 µM		
CN(C)C(=S)/N=c1\ssc(=S)n1-c1ccccc1		> 100 µM		22.7		44.4				32.1 µM		42.6 µM		28.9		46.6 µM		34.1 µM		> 100
COc1ccc(N2CCN(CN3CCN(c4ccc(OC)cc4)C3)C2)cc1	> 100	> 100 µM	> 100 µM	> 100			> 100 µM	> 100	33.5	96.9 µM	27.8 µM	52.7 µM	37 µM	> 100	> 100	> 100 µM	> 100	> 100 µM	33.4	> 100
C=CCC(N[C@@H](CO)c1ccccc1)c1ccccn1 (stereo not given in full)			> 100 µM	> 100	24	> 100	> 100 µM	> 100	> 100	> 100 µM	34 µM	> 100 µM	> 100 µM	> 100	> 100	> 100 µM	> 100	> 100 µM	74.4	> 100
O=C1NC2(CCCC2)/C(=N\O)C12CCCC2		> 100 µM		> 100		> 100				> 100 µM		> 100 µM		> 100		> 100 µM		> 100 µM		> 100
